Some test systems named below: A498; A549; CCRF-CEM; COLO 205; HCC 2998; HCT-15; KM-20L2; KM12; LOX IMVI; Malme-3M; NCI-H460; OVCAR-4; OVCAR-5; SN12C; SNB-78; U-251; OVCAR-3; OVCAR-8; UACC-62; UO-31.
What all share (test): growth of human tumour cells (NCI), 48 h

The structures appear in SMILES notation.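 Grown in 96-well plates, cells were treated for 48 hours with each compound at five concentrations. Insufficient inhibition: endpoint recorded as highest concentration tested. The concentration for 50% growth inhibition is given as GI50.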 Activity calls are given as the source filed them. No stated cut-off is given here; in the data, active = GI50 up to about 1.1 µM and inactive = higher.

As to `Cc1cc(O)c2c(c1)C(=O)c1cc(O)cc(O)c1C2=O` [EMODIN], the GI50 in the test with A498 was 21.3 µM (inactive); in the test with A549, 23 µM (inactive); with CCRF-CEM, > 61.8 µM (inactive); with COLO 205 it was 19.8 µM (inactive); in the test on HCC 2998, 31.3 µM (inactive); with HCT-15, 22.9 µM. For the same compound, the GI50 is 40.8 µM (inactive) with KM-20L2; 20.5 µM (inactive) in the test on KM12; 15.9 µM (inactive) in the test on LOX IMVI; 11 µM (inactive) in the test with Malme-3M; 20.3 µM (inactive) in the test with NCI-H460; 30.6 µM (inactive) with OVCAR-4. The GI50 is 39.4 µM (inactive) in the test on OVCAR-5, 20.5 µM (inactive) in the test on SN12C, 49.2 µM (inactive) in the test with SNB-78 and 24.7 µM (inactive) in the test with U-251.
Consider `CCOC(=O)/C=C/c1c[nH]c(=O)[nH]c1=O`, for which the GI50 in the test with A498 is > 75 µM (inactive); in the test with A549, > 75 µM (inactive); with CCRF-CEM it was > 75 µM (inactive); in the test with COLO 205 it was > 75 µM (inactive); with HCC 2998 it was > 75 µM (inactive); with HCT-15, greater than 75 µM. The GI50 in the test with KM-20L2, with KM12, in the test with LOX IMVI, in the test with Malme-3M, in the test on NCI-H460 and in the test on OVCAR-3 was > 75 µM (inactive) in each case. Further, the GI50 in the test with OVCAR-4, in the test with OVCAR-5, with OVCAR-8, with SN12C, in the test with SNB-78 and with U-251 was > 75 µM (inactive) throughout. In addition, the GI50 in the test with UACC-62 and with UO-31 was > 75 µM (inactive) throughout.
Regarding `CC1OC=CC(=O)C1O` (stereo not drawn), the GI50 is > 100 µM (inactive) with A549; 69.7 µM (inactive) with CCRF-CEM; > 100 µM (inactive) in the test with HCC 2998; greater than 100 µM in the test with HCT-15; > 100 µM (inactive) in the test on KM-20L2; > 100 µM (inactive) in the test on KM12. In addition, the GI50 in the test on LOX IMVI, in the test on Malme-3M, with NCI-H460, in the test on OVCAR-3, with OVCAR-4 and in the test with OVCAR-5 was > 100 µM (inactive) throughout. In addition, the GI50 in the test with OVCAR-8, in the test with SN12C, in the test on SNB-78, with U-251, with UACC-62 and with UO-31 was > 100 µM (inactive) throughout.
For the compound `O=c1oc2c(ccc3occc32)c(N2CCCCC2)c1-c1ccccc1`, the GI50 in the test on A498 is > 100 µM (inactive); in the test on A549, > 93.3 µM (inactive); with COLO 205 it was > 100 µM (inactive); in the test with HCC 2998, > 100 µM (inactive); with HCT-15 it was greater than 80 µM; with KM-20L2, > 100 µM (inactive). For the same compound, the GI50 in the test on KM12 is > 66.5 µM (inactive); with LOX IMVI, > 100 µM (inactive); in the test on Malme-3M it was > 100 µM (inactive); in the test with NCI-H460, > 96.4 µM (inactive); in the test with OVCAR-3 it was > 100 µM (inactive); with OVCAR-4, > 93.3 µM (inactive). Also, the GI50 was > 100 µM (inactive) in the test with OVCAR-5; > 100 µM (inactive) in the test on OVCAR-8; > 100 µM (inactive) in the test on SN12C; > 91.8 µM (inactive) in the test on SNB-78; > 100 µM (inactive) in the test with U-251; > 95.1 µM (inactive) in the test with UACC-62. In addition, in the test on UO-31, the GI50 was 12.7 µM (inactive).
On to `O=C(N[C@@H](c1ccccc1)[C@@H](O)C(=O)OCc1ccc2c(c1)OCO2)c1ccccc1`, for which the GI50 in the test with A498 was > 100 µM (inactive); in the test on A549, > 100 µM (inactive); in the test on CCRF-CEM, > 100 µM (inactive); with COLO 205, > 100 µM (inactive); in the test with HCC 2998, > 100 µM (inactive); in the test with HCT-15 it was greater than 100 µM. Besides, the GI50 in the test on KM-20L2, in the test on KM12, in the test on LOX IMVI, in the test on Malme-3M, in the test with NCI-H460 and in the test with OVCAR-3 was > 100 µM (inactive) in each case. The GI50 is > 100 µM (inactive) with OVCAR-4; > 31.6 µM (inactive) in the test on OVCAR-5; > 100 µM (inactive) in the test with OVCAR-8; > 100 µM (inactive) in the test on SN12C; > 100 µM (inactive) with SNB-78; > 100 µM (inactive) with U-251. In addition, the GI50 was > 80.7 µM (inactive) in the test with UACC-62 and > 91.6 µM (inactive) with UO-31.
With `O=C(O)/C=C/c1ccncc1`, the GI50 in the test on A498 was > 100 µM (inactive); in the test on CCRF-CEM, > 100 µM (inactive); with COLO 205, > 100 µM (inactive); with HCC 2998, > 100 µM (inactive); in the test with HCT-15, 14.5 µM; in the test on KM-20L2, > 100 µM (inactive). In addition, the GI50 in the test on KM12, in the test with LOX IMVI, in the test on Malme-3M, in the test with NCI-H460, in the test with OVCAR-3 and in the test with OVCAR-4 was > 100 µM (inactive) in each case. Moreover, the GI50 in the test with OVCAR-5 was > 100 µM (inactive); with OVCAR-8 it was > 100 µM (inactive); in the test on SN12C, > 100 µM (inactive); in the test with SNB-78 it was > 100 µM (inactive); in the test with U-251 it was 0.173 µM (active); in the test on UACC-62, > 100 µM (inactive). In addition, the GI50 in the test with UO-31 is > 100 µM (inactive).
For the compound `O=C1OC(c2ccccc2)=N/C1=C/c1cccs1`, the GI50 with A549 was > 100 µM (inactive); in the test with CCRF-CEM, 23.4 µM (inactive); in the test on HCC 2998, > 100 µM (inactive); in the test on HCT-15 it was 36.7 µM; in the test with KM12, 56 µM (inactive); in the test with NCI-H460, > 100 µM (inactive). Besides, the GI50 is 26.8 µM (inactive) in the test on OVCAR-3; 41 µM (inactive) in the test with OVCAR-4; > 100 µM (inactive) with OVCAR-5; 63.1 µM (inactive) with OVCAR-8; 59.8 µM (inactive) with U-251.
In the case of `CC1C(=O)CC(c2cccs2)N(N=O)C1c1cccs1` (stereo not drawn), the GI50 in the test with A498 is 13.7 µM (inactive); with A549, 58.3 µM (inactive); in the test on CCRF-CEM it was 34 µM (inactive); in the test with COLO 205 it was 53.1 µM (inactive); in the test on HCC 2998, 30.4 µM (inactive); with HCT-15 it was 46.1 µM. In addition, the GI50 in the test on KM-20L2 was 71 µM (inactive); in the test on KM12, 54.1 µM (inactive); in the test on LOX IMVI, 56.5 µM (inactive); with Malme-3M, > 82 µM (inactive); with NCI-H460, 34.8 µM (inactive); with OVCAR-3, 47 µM (inactive). For the same compound, the GI50 is 50.2 µM (inactive) in the test with OVCAR-4; > 100 µM (inactive) in the test with OVCAR-5; > 42 µM (inactive) in the test on OVCAR-8; 69.8 µM (inactive) in the test on SN12C; 35.7 µM (inactive) in the test on SNB-78; 68.2 µM (inactive) with U-251. The GI50 in the test on UACC-62 is 59.7 µM (inactive); with UO-31 it was 43.6 µM (inactive).

For the origin of these results see ChEMBL document CHEMBL1201862, “PubChem BioAssay data set” (2004).
